Source: PubChem BioAssay (NCI)
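Cultured in 96-well plates, cells were exposed to test compound for 48 hours across five concentrations. Here, GI50 denotes the concentration required for 50% inhibition of growth. TGI marks complete inhibition of growth.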

What was measured:
Assay in all cases: growth of human tumour cells (NCI), 48 h
OVCAR-8 ovarian = test system: OVCAR-8 ovarian
K-562 leukemia = test system: K-562 leukemia
CAKI-1 renal = test system: CAKI-1 renal
HCC-2998 colon = test system: HCC-2998 colon
SK-MEL-2 melanoma = test system: SK-MEL-2 melanoma
RXF 393 renal = test system: RXF 393 renal
SNB-19 CNS = test system: SNB-19 CNS
HOP-92 NSCLC = test system: HOP-92 NSCLC
RPMI-8226 leukemia = test system: RPMI-8226 leukemia
HS 578T breast = test system: HS 578T breast

SMILES	GI50 (OVCAR-8 ovarian)	TGI (OVCAR-8 ovarian)	GI50 (K-562 leukemia)	TGI (K-562 leukemia)	GI50 (CAKI-1 renal)	TGI (CAKI-1 renal)	GI50 (HCC-2998 colon)	TGI (HCC-2998 colon)	GI50 (SK-MEL-2 melanoma)	TGI (SK-MEL-2 melanoma)	GI50 (RXF 393 renal)	TGI (RXF 393 renal)	GI50 (SNB-19 CNS)	TGI (SNB-19 CNS)	GI50 (HOP-92 NSCLC)	TGI (HOP-92 NSCLC)	TGI (RPMI-8226 leukemia)	GI50 (RPMI-8226 leukemia)	TGI (HS 578T breast)
C[CH2][Sn]([CH2]C)([O]C(=O)c1ccc(F)cc1)[O][Sn]([CH2]C)([CH2]C)[O]C(=O)c1ccc(F)cc1	> 100 µM	> 100 µM	20.1 µM	78.6 µM	12.2 µM	24.9 µM	> 100 µM	> 100 µM	28.5 µM	83.3 µM	15.7 µM	29.9 µM	> 100 µM	> 100 µM	19.1 µM	59 µM	–	–	–
COC1CC(OC)C(O)C(CO)O1 (configuration not stated)	–	> 100 µM	–	> 100 µM	–	–	–	> 100 µM	–	> 100 µM	–	> 100 µM	–	–	–	–	–	–	–
CCOC(=O)NC1CC2CCC1(OC)C=C2C (configuration not stated)	–	> 100 µM	–	> 100 µM	–	> 100 µM	–	> 100 µM	–	> 100 µM	–	> 100 µM	–	> 100 µM	–	> 100 µM	> 100 µM	–	–
C=C[C@H]1C=Cc2c(OC)cccc2[C@@H]1COP1(=S)NC(C)C(c2ccccc2)O1 (some centres not stated)	–	> 100 µM	–	> 100 µM	–	–	–	> 100 µM	–	–	–	> 100 µM	–	> 100 µM	–	–	> 100 µM	–	–
COC(=O)Cc1cc(=O)n2c([nH]c3ccccc32)c1C#N	–	> 100 µM	–	> 100 µM	–	> 100 µM	–	> 100 µM	–	> 100 µM	–	> 100 µM	–	> 100 µM	–	–	> 100 µM	–	–
c1ccc2c(CNCCCCCCCCCCCCNCc3cccc4ccccc34)cccc2c1	–	3.13 µM	–	2.11 µM	–	4.27 µM	–	–	–	2.93 µM	–	2.66 µM	–	–	–	3.66 µM	2.55 µM	–	–
c1ccc2c3c(ccc2c1)-c1c(ccc2c(NCCCCN4CCCCC4)cccc12)C3	2.19 µM	5.61 µM	1.67 µM	5.85 µM	–	–	1.63 µM	3.49 µM	2.92 µM	6.42 µM	–	–	22.2 µM	63.5 µM	2.46 µM	7.73 µM	3.6 µM	1.64 µM	–
Cc1ccccc1NC(=O)c1ccc([N+](=O)[O-])cc1	–	> 100 µM	–	> 100 µM	–	> 100 µM	–	> 100 µM	–	–	–	> 100 µM	–	> 100 µM	–	> 100 µM	> 100 µM	–	–
CCCCCCCCCCCCC(CCCCCCCCCCCC)OP(=O)(O)O	–	> 100 µM	–	> 100 µM	–	> 100 µM	–	> 100 µM	–	> 100 µM	–	> 100 µM	–	> 100 µM	–	> 100 µM	> 100 µM	–	–
O=C(Cc1ccccc1)NS(=O)(=O)c1ccccc1	–	> 100 µM	–	> 100 µM	–	> 100 µM	–	> 100 µM	–	> 100 µM	–	> 100 µM	–	> 100 µM	–	> 100 µM	> 100 µM	–	–
Cc1ccc(N2C(=O)C(Cl)=C(Cl)C2=O)cc1	–	–	–	87.4 µM	–	31.4 µM	–	> 100 µM	–	> 100 µM	–	25.4 µM	–	> 100 µM	–	32.4 µM	52.8 µM	–	–
CC1=Nc2ccccc2C12C(c1ccccc1)C(c1ccccc1)C(=O)N1c3ccccc3CC12 (configuration not stated)	–	> 100 µM	–	> 100 µM	–	> 100 µM	–	> 100 µM	–	> 100 µM	–	> 100 µM	–	> 100 µM	–	> 100 µM	> 100 µM	–	–
CCOC(=O)C(C(=O)OCC)=c1sc(=C(C(=O)OCC)C(=O)OCC)s1	–	> 100 µM	–	> 100 µM	–	> 100 µM	–	> 100 µM	–	> 100 µM	–	> 100 µM	–	–	–	> 100 µM	> 100 µM	–	–
CC(C)c1ccc2nc3ccc(C(=O)NCCN4CCN(c5ccccc5)CC4)cn3c(=O)c2c1	–	> 100 µM	–	> 100 µM	–	> 100 µM	–	> 100 µM	–	–	–	–	–	> 100 µM	–	–	–	–	> 100 µM
FC(F)(F)c1cccc(C2SCc3nc4ccccc4n32)c1 (configuration not stated)	–	> 100 µM	–	> 100 µM	–	> 100 µM	–	> 100 µM	–	> 100 µM	–	> 100 µM	–	> 100 µM	–	32.2 µM	> 100 µM	–	–
Fc1cccc(-c2[nH]nc3nc(Nc4cccnc4)sc23)c1	15.7 µM	> 100 µM	0.421 µM	> 100 µM	3.72 µM	> 100 µM	> 100 µM	> 100 µM	42.2 µM	> 100 µM	3.1 µM	> 100 µM	–	–	> 100 µM	> 100 µM	> 100 µM	5.79 µM	–
